The results in this text go back to patent publication US20230338392A1, “SUBCUTANEOUS ADMINISTRATION OF AN ASBT INHIBITOR” (Albireo AB, priority 2022, published 2023).

Data set [1] deals with LCN2 (lipocalin-2). The data set can be described thus: DDC model: mRNA expression of renal proximal tubule cell injury marker LCN2. It counts as in vivo, male C57BL/6J WT mice. The note with it: DDC cholestatic mice, s.c. elobixibat versus vehicle, 14 days (FIG. 7). From the text:
(§1) Chronic feeding of 3,5-diethoxycarbonyl-1,4-dihydrocollidine (DDC) was used as an in vivo model for cholestatic liver injury. Chronic feeding of DDC produces an intraductal porphyrin plug which leads to ductular obstruction contributing to damage of biliary epithelia. The time course of the DDC model usually ranges from 1 to 6 weeks, depending on the severity of the cholangiopathy that the study requires. Chronic feeding of DDC in mice reproduces the main histopathological hallmarks of human cholestatic disease such as (1) remodeling of biliary compartments giving rise to ductular reaction, (2) periductular fibrosis, and (3) inflammatory infiltrate (Mariotti et al., Biochim Biophys Acta Mol Basis Dis 2018, vol. 1864, p. 1254-1261; Pose et al., Methods Mol. Biol. 2019, vol. 1981, p. 249-257).
(§2) Male C57BL/6J WT mice of 8 weeks old were used. After completion of quarantine and acclimatization period, animals were randomized based on body weight into experimental groups (n=7-9/group). Animals were fed chow (control diet) or chow plus 0.1% DDC (DDC diet) for 14 days, and treated once daily with vehicle (s.c.) or the ASBT inhibitor elobixibat at a dose of 0.3, 1.0 or 3.0 mg/kg (s.c.), as shown in Table 1. Animals were weighed at days 7, 11 and 14. Blood samples were collected at day 7. On day 11, animals were moved to individual cages with wire bottom for fecal collection. […]

Data set [2] is described as follows: Plasma concentration following subcutaneous or intravenous administration. Format: in vivo, male C57BL/6 mice. How it is done: Elobixibat was administered to male C57BL/6 mice (n=5) as a subcutaneous injection at a dose of 3 or 10 mg/kg or as an intravenous injection at a dose of 1 mg/kg (single injections), or as repeated subcutaneous injections at a dose of 1 mg/kg at day 1 and day 5. Elobixibat was formulated in 70% PEG400; 10% ethanol; and 20% water and given at a dosing volume of 5 mL/kg subcutaneously or 1 mL/kg intravenously. Blood samples were collected after 0.25, 0.5, 1, 2, 4, 6, 8 and 24 hours following subcutaneous administration and after 0.083, 0.25, 0.5, 1, 2, 4, 6, 8 and 24 hours following intravenous administration. Blood samples were taken from saphenous vein. 0.2% EDTA was used as the anticoagulant. The samples were analyzed by a discovery grade bioanalytical method developed for the estimation of elobixibat in plasma, using an LC-MS/MS system.
The results for single subcutaneous (3 or 10 mg/kg) and intravenous (1 mg/kg) administrations are shown in FIG. 1, and the results for repeated subcutaneous administrations (1 mg/kg at day 1 and day 5) are shown in FIG. 2.

Data set [3] deals with KIM-1 (kidney injury molecule-1). The data set can be described thus: DDC model: mRNA expression of renal proximal tubule cell injury marker KIM-1. The note with it: DDC cholestatic mice, s.c. elobixibat versus vehicle, 14 days (FIG. 6). It counts as in vivo, male C57BL/6J WT mice.
From the text: as §1, §2

Data set [4] relates to DDC mice. Kind of data set: DDC in vivo model of cholestatic disease: serum chemistries. Set-up: species or system male C57BL/6J WT mice.
From the text: as §1
Male C57BL/6J WT mice of 8 weeks old were used. After completion of quarantine and acclimatization period, animals were randomized based on body weight into experimental groups (n=7-9/group). Animals were fed chow (control diet) or chow plus 0.1% DDC (DDC diet) for 14 days, and treated once daily with vehicle (s.c.) or the ASBT inhibitor elobixibat at a dose of 0.3, 1.0 or 3.0 mg/kg (s.c.), as shown in Table 1. Animals were weighed at days 7, 11 and 14. Blood samples were collected at day 7. On day 11, animals were moved to individual cages with wire bottom for fecal collection. Blood, urine, tissue samples and 3-day fecal samples were collected at day 14.
Endpoints measured at the end of the study include fecal bile acid excretion, urine and serum bile acid concentration and composition, and serum chemistries reflecting liver status.

The mark [5] stands for this setting: subcutaneous administration (FIG. 1).

For `CCCCC1(CCCC)CN(c2ccccc2)c2cc(SC)c(OCC(=O)N[C@@H](C(=O)NCC(=O)O)c3ccccc3)cc2S(=O)(=O)C1` [elobixibat, 1,1-dioxo-3,3-dibutyl-5-phenyl-7-methylthio-8-(N-{(R)-1′-phenyl-1′-[N′-(carboxymethyl)-carbamoyl]methyl}carbamoylmethoxy)-2,3,4,5-tetrahydro-1,5-benzothiazepine], in data set [1], the “mRNA expression for LCN2” value is given as “reduced”. For the same molecule, the clearance entry in data set [2] (intravenous administration (FIG. 1)) is “quick clearance”. Moreover, in data set [2] (setting [5]), the bioavailability result is “high bioavailability” and the “duration of constant exposure” value is recorded as “more than 24 hours”. In data set [3], the “mRNA expression for KIM-1” value is given as “reduced”. In addition, the “serum alkaline phosphatase (ALP) levels” value in data set [4] (s.c. once daily 0.3, 1.0 or 3.0 mg/kg for 14 days (FIG. 5)) was “dose-dependent trend towards reduced”. Besides, the serum bile acids result in data set [4] (s.c. once daily 0.3, 1.0 or 3.0 mg/kg for 14 days, reduced at lowest dose, no additional reduction at higher doses (FIG. 3)) was “statistically significant reduction”. Also, the serum total bilirubin entry in data set [4] (s.c. once daily 0.3, 1.0 or 3.0 mg/kg for 14 days, reduced at lowest dose, no additional reduction at higher doses (FIG. 4)) was “statistically significant reduction”.
